Measured values reported in ChEMBL document CHEMBL1131152, “In vitro and in vivo activities of oligodeoxynucleotide-based thrombin inhibitors containing neutral formacetal linkages” (J Med Chem, 1998).

Molecular target: Prothrombin (Homo sapiens) (UniProt P00734)
Assay: Relative prothrombin time was determined as the activity of the test ODN (oligodeoxynucleotide) relative to that of GS-522

Relative PT	Structure (SMILES)
0.9	Cc1cn([C@H]2C[C@H](OP(=O)(O)OC[C@H]3O[C@@H](n4cc(C)c(=O)[nH]c4=O)C[C@@H]3OP(=O)(O)OC[C@H]3O[C@@H](n4cnc5c(=O)nc(N)[nH]c54)C[C@@H]3OP(=O)(O)OC[C@H]3O[C@@H](n4cnc5c(=O)[nH]c(=N)[nH]c54)C[C@@H]3OP(=O)(O)OC[C@H]3O[C@@H](n4cc(C)c(=O)[nH]c4=O)C[C@@H]3OP(=O)(O)OC[C@H]3O[C@@H](n4cnc5c(=O)[nH]c(=N)[nH]c54)C[C@@H]3OP(=O)(O)OC[C@H]3O[C@@H](n4cc(C)c(=O)[nH]c4=O)C[C@@H]3OP(=O)(O)OC[C@H]3O[C@@H](n4cnc5c(=O)nc(N)[nH]c54)C[C@@H]3OP(=O)(O)OC[C@H]3O[C@@H](n4cnc5c(=O)[nH]c(=N)[nH]c54)C[C@@H]3OP(=O)(O)OC[C@H]3O[C@@H](n4cc(C)c(=O)[nH]c4=O)C[C@@H]3OP(=O)(O)OC[C@H]3O[C@@H](n4cc(C)c(=O)[nH]c4=O)C[C@@H]3OP(=O)(O)OC[C@H]3O[C@@H](n4cnc5c(=O)[nH]c(=N)[nH]c54)C[C@@H]3OP(=O)(O)OC[C@H]3O[C@@H](n4cnc5c(=O)nc(N)[nH]c54)C[C@@H]3O)[C@@H](COCO[C@H]3C[C@H](n4cnc5c(=O)nc(N)[nH]c54)O[C@@H]3COP(=O)(O)O[C@H]3C[C@H](n4cnc5c(=O)nc(N)[nH]c54)O[C@@H]3COP(=O)(O)O)O2)c(=O)[nH]c1=O
0.6	Cc1cn([C@H]2C[C@H](OP(=O)(O)OC[C@H]3O[C@@H](n4cnc5c(=O)nc(N)[nH]c54)C[C@@H]3OCOC[C@H]3O[C@@H](n4cnc5c(=O)[nH]c(=N)[nH]c54)C[C@@H]3OP(=O)(O)OC[C@H]3O[C@@H](n4cc(C)c(=O)[nH]c4=O)C[C@@H]3OP(=O)(O)OC[C@H]3O[C@@H](n4cnc5c(=O)[nH]c(=N)[nH]c54)C[C@@H]3OP(=O)(O)OC[C@H]3O[C@@H](n4cc(C)c(=O)[nH]c4=O)C[C@@H]3OP(=O)(O)OC[C@H]3O[C@@H](n4cnc5c(=O)nc(N)[nH]c54)C[C@@H]3OP(=O)(O)OC[C@H]3O[C@@H](n4cnc5c(=O)[nH]c(=N)[nH]c54)C[C@@H]3OP(=O)(O)OC[C@H]3O[C@@H](n4cc(C)c(=O)[nH]c4=O)C[C@@H]3OP(=O)(O)OC[C@H]3O[C@@H](n4cc(C)c(=O)[nH]c4=O)C[C@@H]3OP(=O)(O)OC[C@H]3O[C@@H](n4cnc5c(=O)[nH]c(=N)[nH]c54)C[C@@H]3OCOC[C@H]3O[C@@H](n4cnc5c(=O)nc(N)[nH]c54)C[C@@H]3O)[C@@H](COP(=O)(O)O[C@H]3C[C@H](n4cc(C)c(=O)[nH]c4=O)O[C@@H]3COP(=O)(O)O[C@H]3C[C@H](n4cnc5c(=O)nc(N)[nH]c54)O[C@@H]3COP(=O)(O)O[C@H]3C[C@H](n4cnc5c(=O)[nH]c(=N)[nH]c54)O[C@@H]3COP(=O)(O)O)O2)c(=O)[nH]c1=O
0.7	Cc1cn([C@H]2C[C@H](OCOC[C@H]3O[C@@H](n4cnc5c(=O)nc(N)[nH]c54)C[C@@H]3OP(=O)(O)OC[C@H]3O[C@@H](n4cnc5c(=O)[nH]c(=N)[nH]c54)C[C@@H]3OP(=O)(O)OC[C@H]3O[C@@H](n4cc(C)c(=O)[nH]c4=O)C[C@@H]3OP(=O)(O)OC[C@H]3O[C@@H](n4cnc5c(=O)[nH]c(=N)[nH]c54)C[C@@H]3OP(=O)(O)OC[C@H]3O[C@@H](n4cc(C)c(=O)[nH]c4=O)C[C@@H]3OP(=O)(O)OC[C@H]3O[C@@H](n4cnc5c(=O)nc(N)[nH]c54)C[C@@H]3OP(=O)(O)OC[C@H]3O[C@@H](n4cnc5c(=O)[nH]c(=N)[nH]c54)C[C@@H]3OP(=O)(O)OC[C@H]3O[C@@H](n4cc(C)c(=O)[nH]c4=O)C[C@@H]3OP(=O)(O)OC[C@H]3O[C@@H](n4cc(C)c(=O)[nH]c4=O)C[C@@H]3OP(=O)(O)OC[C@H]3O[C@@H](n4cnc5c(=O)[nH]c(=N)[nH]c54)C[C@@H]3OP(=O)(O)OC[C@H]3O[C@@H](n4cnc5c(=O)nc(N)[nH]c54)C[C@@H]3O)[C@@H](COP(=O)(O)O[C@H]3C[C@H](n4cc(C)c(=O)[nH]c4=O)O[C@@H]3COP(=O)(O)O[C@H]3C[C@H](n4cnc5c(=O)nc(N)[nH]c54)O[C@@H]3COP(=O)(O)O[C@H]3C[C@H](n4cnc5c(=O)nc(N)[nH]c54)O[C@@H]3COP(=O)(O)O)O2)c(=O)[nH]c1=O
0.6	Cc1cn([C@H]2C[C@H](OP(=O)(O)OC[C@H]3O[C@@H](n4cnc5c(=O)nc(N)[nH]c54)C[C@@H]3OCOC[C@H]3O[C@@H](n4cnc5c(=O)[nH]c(=N)[nH]c54)C[C@@H]3OP(=O)(O)OC[C@H]3O[C@@H](n4cc(C)c(=O)[nH]c4=O)C[C@@H]3OP(=O)(O)OC[C@H]3O[C@@H](n4cnc5c(=O)[nH]c(=N)[nH]c54)C[C@@H]3OP(=O)(O)OC[C@H]3O[C@@H](n4cc(C)c(=O)[nH]c4=O)C[C@@H]3OP(=O)(O)OC[C@H]3O[C@@H](n4cnc5c(=O)nc(N)[nH]c54)C[C@@H]3OCOC[C@H]3O[C@@H](n4cnc5c(=O)[nH]c(=N)[nH]c54)C[C@@H]3OP(=O)(O)OC[C@H]3O[C@@H](n4cc(C)c(=O)[nH]c4=O)C[C@@H]3OP(=O)(O)OC[C@H]3O[C@@H](n4cc(C)c(=O)[nH]c4=O)C[C@@H]3OP(=O)(O)OC[C@H]3O[C@@H](n4cnc5c(=O)[nH]c(=N)[nH]c54)C[C@@H]3OP(=O)(O)OC[C@H]3O[C@@H](n4cnc5c(=O)nc(N)[nH]c54)C[C@@H]3O)[C@@H](COP(=O)(O)O[C@H]3C[C@H](n4cc(C)c(=O)[nH]c4=O)O[C@@H]3COP(=O)(O)O[C@H]3C[C@H](n4cnc5c(=O)nc(N)[nH]c54)O[C@@H]3COP(=O)(O)O[C@H]3C[C@H](n4cnc5c(=O)[nH]c(=N)[nH]c54)O[C@@H]3COP(=O)(O)O)O2)c(=O)[nH]c1=O
1.1	Cc1cn([C@H]2C[C@H](OCOC[C@H]3O[C@@H](n4cnc5c(=O)nc(N)[nH]c54)C[C@@H]3OP(=O)(O)OC[C@H]3O[C@@H](n4cnc5c(=O)[nH]c(=N)[nH]c54)C[C@@H]3OP(=O)(O)OC[C@H]3O[C@@H](n4cc(C)c(=O)[nH]c4=O)C[C@@H]3OP(=O)(O)OC[C@H]3O[C@@H](n4cc(C)c(=O)[nH]c4=O)C[C@@H]3OP(=O)(O)OC[C@H]3O[C@@H](n4cnc5c(=O)[nH]c(=N)[nH]c54)C[C@@H]3OP(=O)(O)OC[C@H]3O[C@@H](n4cnc5c(=O)nc(N)[nH]c54)C[C@@H]3O)[C@@H](COP(=O)(O)O[C@H]3C[C@H](n4cnc5c(=O)[nH]c(=N)[nH]c54)O[C@@H]3COP(=O)(O)O[C@H]3C[C@H](n4cc(C)c(=O)[nH]c4=O)O[C@@H]3COP(=O)(O)O[C@H]3C[C@H](n4cnc5c(=O)[nH]c(=N)[nH]c54)O[C@@H]3COP(=O)(O)O[C@H]3C[C@H](n4cnc5c(=O)nc(N)[nH]c54)O[C@@H]3COP(=O)(O)O[C@H]3C[C@H](n4cc(C)c(=O)[nH]c4=O)O[C@@H]3COP(=O)(O)O[C@H]3C[C@H](n4cc(C)c(=O)[nH]c4=O)O[C@@H]3COP(=O)(O)O[C@H]3C[C@H](n4cnc5c(=O)nc(N)[nH]c54)O[C@@H]3COP(=O)(O)O[C@H]3C[C@H](n4cnc5c(=O)nc(N)[nH]c54)O[C@@H]3COP(=O)(O)O)O2)c(=O)[nH]c1=O
0.7	Cc1cn([C@H]2C[C@H](OP(=O)(O)OC[C@H]3O[C@@H](n4cnc5c(=O)nc(N)[nH]c54)C[C@@H]3OP(=O)(O)OC[C@H]3O[C@@H](n4cnc5c(=O)[nH]c(=N)[nH]c54)C[C@@H]3OP(=O)(O)OC[C@H]3O[C@@H](n4cc(C)c(=O)[nH]c4=O)C[C@@H]3OP(=O)(O)OC[C@H]3O[C@@H](n4cnc5c(=O)nc(N)[nH]c54)C[C@@H]3OP(=O)(O)OC[C@H]3O[C@@H](n4cc(C)c(=O)[nH]c4=O)C[C@@H]3OP(=O)(O)OC[C@H]3O[C@@H](n4cnc5c(=O)nc(N)[nH]c54)C[C@@H]3OCOC[C@H]3O[C@@H](n4cnc5c(=O)[nH]c(=N)[nH]c54)C[C@@H]3OP(=O)(O)OC[C@H]3O[C@@H](n4cc(C)c(=O)[nH]c4=O)C[C@@H]3OP(=O)(O)OC[C@H]3O[C@@H](n4cc(C)c(=O)[nH]c4=O)C[C@@H]3OP(=O)(O)OC[C@H]3O[C@@H](n4cnc5c(=O)[nH]c(=N)[nH]c54)C[C@@H]3OP(=O)(O)OC[C@H]3O[C@@H](n4cnc5c(=O)nc(N)[nH]c54)C[C@@H]3O)[C@@H](COP(=O)(O)O[C@H]3C[C@H](n4cc(C)c(=O)[nH]c4=O)O[C@@H]3COP(=O)(O)O[C@H]3C[C@H](n4cnc5c(=O)nc(N)[nH]c54)O[C@@H]3COCO[C@H]3C[C@H](n4cnc5c(=O)nc(N)[nH]c54)O[C@@H]3COP(=O)(O)O)O2)c(=O)[nH]c1=O
0.5	Cc1cn([C@H]2C[C@H](OCOC[C@H]3O[C@@H](n4cnc5c(=O)nc(N)[nH]c54)C[C@@H]3OP(=O)(O)OC[C@H]3O[C@@H](n4cnc5c(=O)[nH]c(=N)[nH]c54)C[C@@H]3OP(=O)(O)OC[C@H]3O[C@@H](n4cc(C)c(=O)[nH]c4=O)C[C@@H]3OCOC[C@H]3O[C@@H](n4cc(C)c(=O)[nH]c4=O)C[C@@H]3OP(=O)(O)OC[C@H]3O[C@@H](n4cnc5c(=O)[nH]c(=N)[nH]c54)C[C@@H]3OP(=O)(O)OC[C@H]3O[C@@H](n4cnc5c(=O)nc(N)[nH]c54)C[C@@H]3O)[C@@H](COP(=O)(O)O[C@H]3C[C@H](n4cnc5c(=O)nc(N)[nH]c54)O[C@@H]3COCO[C@H]3C[C@H](n4cc(C)c(=O)[nH]c4=O)O[C@@H]3COP(=O)(O)O[C@H]3C[C@H](n4cnc5c(=O)[nH]c(=N)[nH]c54)O[C@@H]3COP(=O)(O)O[C@H]3C[C@H](n4cnc5c(=O)nc(N)[nH]c54)O[C@@H]3COP(=O)(O)O[C@H]3C[C@H](n4cc(C)c(=O)[nH]c4=O)O[C@@H]3COCO[C@H]3C[C@H](n4cc(C)c(=O)[nH]c4=O)O[C@@H]3COP(=O)(O)O[C@H]3C[C@H](n4cnc5c(=O)[nH]c(=N)[nH]c54)O[C@@H]3COP(=O)(O)O[C@H]3C[C@H](n4cnc5c(=O)nc(N)[nH]c54)O[C@@H]3COP(=O)(O)O)O2)c(=O)[nH]c1=O
